Data: PubChem BioAssay AID1259411 (Chemical Carcinogenesis Research Information System (CCRIS), 2018)
Active and inactive are the calls of the source. How the calls were made is not given here.

Tested on: rodent carcinogenicity bioassays, tumor incidence
Assay: CCRIS carcinogenicity studies
Procedure, shortened: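 Archive of carcinogenicity, mutagenicity, tumor promotion and tumor inhibition results drawn from journals, NCI reports and other sources, expert-reviewed; covers 1985-2011 and is no longer updated.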

Compound: FCCl
- carcinogen call (Species: RAT, Strain/Sex: WISTAR/MALE,FEMALE, Route: GAVAGE, Dose: 300 MG/KG IN CORN OIL 5/WK FOR 52 WK, Tumor Site: Type of Lesion: STOMACH: SQUAMOUS CELL CARCINOMA, FIBROSARCOMA): active; positive

Compound: O=C1C=C[C@H]2CO[C@@H]1O2
- carcinogen call (Species: MOUSE, Strain/Sex: CD-1/FEMALE, Route: DERMAL, Dose: 0, 2.5 UMOL/0.1 DMSO 2/WK FOR 5 WK FOLLOWED 1 WK LATER BY 0.1 ML ACETONE 2/WK FOR 47 WK (STUDY DURATION: 52 WK)): inactive; negative

Compound: CCOC(=O)N(C)N=O
- carcinogen call (Species: MOUSE, Route: INTRAPERITONEAL, Tumor Site: Type of Lesion: LUNG): active; positive
- carcinogen call (Species: MOUSE, Route: ORAL, Tumor Site: Type of Lesion: ESOPHAGUS, FORESTOMACH): active; positive
- carcinogen call (Species: RAT, Route: INTRAVENOUS, Tumor Site: Type of Lesion: LUNG): active; positive
- carcinogen call (Species: RAT, Route: ORAL, Tumor Site: Type of Lesion: FORESTOMACH): active; positive
- carcinogen call (Species: RAT, Strain/Sex: F344/FEMALE, Route: GAVAGE, Dose: 0, 0.35, 1.4 MG/ANIMAL IN CORN OIL 1/WK FOR 20 WK (STUDY DURATION: 114 WK), Dose: 0, 0.35, 1.4 MG/ANIMAL IN CORN OIL 1/WK FOR 20 WK (STUDY DURATION: 114 WK), Tumor Site: Type of Lesion: FORESTOMACH: CARCINOMA, ESOPHAGUS: CARCINOMA, PAPILLOMA): active; positive
- carcinogen call (Species: RAT, Strain/Sex: F344/MALE, Route: ORAL, Dose: 20 PPM IN DRINKING WATER FOR 48 WK (STUDY DURATION: 104 WK), Tumor Site: Type of Lesion: FORESTOMACH: PAPILLOMA, SQUAMOUS CELL CARCINOMA): active; positive

Compound: c1ccc2occc2c1
- carcinogen call (Species: MOUSE, Strain/Sex: B6C3F1/FEMALE, Route: GAVAGE, Dose: 0, 120, 240 MG/KG IN CORN OIL 5 D/WK FOR 103 WK (STUDY DURATION: 104 WK), Dose: 0, 120, 240 MG/KG IN CORN OIL 5 D/WK FOR 103 WK (STUDY DURATION: 104 WK), Tumor Site: Type of Lesion: LUNG: ALVEOLAR/BRONCHIOLAR ADENOMA, ALVEOLAR/BRONCHIOLAR CARCINOMA, LIVER: HEPATOCELLULAR ADENOMA, HEPATOCELLULAR ADENOM): active; positive
- carcinogen call (Species: MOUSE, Strain/Sex: B6C3F1/MALE, Route: GAVAGE, Dose: 0, 60, 120 MG/KG IN CORN OIL 5 D/WK FOR 103 WK (STUDY DURATION: 104 WK), Dose: 0, 60, 120 MG/KG IN CORN OIL 5 D/WK FOR 103 WK (STUDY DURATION: 104 WK), Tumor Site: Type of Lesion: LUNG: ALVEOLAR/BRONCHIOLAR ADENOMA, ALVEOLAR/BRONCHIOLAR ADENOMA OR CARCINOMA, LIVER: HEPATOCELLULAR ADENOMA, HEPATOCELL): active; positive
- carcinogen call (Species: RAT, Strain/Sex: F344/FEMALE, Route: GAVAGE, Dose: 0, 60, 120 MG/KG IN CORN OIL 5 D/WK FOR 103 WK (STUDY DURATION: 104 WK), Dose: 0, 60, 120 MG/KG IN CORN OIL 5 D/WK FOR 103 WK (STUDY DURATION: 104 WK), Tumor Site: Type of Lesion: KIDNEY: TUBULAR CELL ADENOCARCINOMA): active; positive
- carcinogen call (Species: RAT, Strain/Sex: F344/MALE, Route: GAVAGE, Dose: 0, 30, 60 MG/KG IN CORN OIL 5 D/WK FOR 103 WK (STUDY DURATION: 104 WK), Dose: 0, 30, 60 MG/KG IN CORN OIL 5 D/WK FOR 103 WK (STUDY DURATION: 104 WK)): inactive; negative

Compound: O=C(c1ccccc1)c1ccccc1
- carcinogen call (Species: Mouse, Strain/Sex: B6C3F1/Female, Route: Oral, Dose: 0, 312, 625, 1250 ppm in feed for 105 wks, Dose: 0, 312, 625, 1250 ppm in feed for 105 wks, Tumor Site: Type of Lesion: Histiocytic sarcoma: (0/50, 0/50, 5/50, 3/50) Liver: Hepatocellular adenoma (5/50, 4/50, 10/50, 8/50)): active; positive (ntp describes as some evidence); ntp describes results in liver as equ
- carcinogen call (Species: Mouse, Strain/Sex: B6C3F1/Male, Route: Oral, Dose: 0, 312, 625, 1250 ppm in feed for 105 wks, Dose: 0, 312, 625, 1250 ppm in feed for 105 wks, Tumor Site: Type of Lesion: Liver: Hepatocellular adenoma (11/50, 15/50, 23/50, 23/50), Hepatocellular adenoma, hepatocellular carcinoma, or hepatob): active; positive (ntp describes as some evidence)
- carcinogen call (Species: Rat, Strain/Sex: F344/N/Female, Route: Oral, Dose: 0, 312, 625, 1250 ppm in feed for 105 wks, Dose: 0, 312, 625, 1250 ppm in feed for 105 wks, Tumor Site: Type of Lesion: Mononuclear cell leukemia: (19/50, 25/50, 30/50, 29/50) Histiocytic sarcoma: (0/50, 0/50, 1/50, 2/50) Mammary gland: fib): equivocal; mononuclear cell leukemia and histiocytic sarcoma incidences describe
- carcinogen call (Species: Rat, Strain/Sex: F344/N/Male, Route: Oral, Dose: 0, 312, 625, 1250 ppm in feed for 105 wks, Dose: 0, 312, 625, 1250 ppm in feed for 105 wks, Tumor Site: Type of Lesion: Kidney: Renal tubule adenoma (1/50, 1/10, 2/50, 4/50), Mononuclear cell leukemia: (27/50, 41/50, 39/50, 24/50)): active; positive trend for renal tubule adenoma (ntp describes as some evidence); mononu

Compound: COc1cc(/C=C/C(=O)O[C@H]2CC[C@]34C[C@]35CC[C@]3(C)[C@@H]([C@H](C)CCC=C(C)C)CC[C@@]3(C)[C@@H]5CC[C@H]4C2(C)C)ccc1O
- carcinogen call (Species: MOUSE, Strain/Sex: B6C3F1/FEMALE, Route: ORAL, Dose: 0, 200, 600, 2000 MG/KG/BW A DAY IN DIET FOR 78 WK (STUDY DURATION: 79 WK), Dose: 0, 200, 600, 2000 MG/KG/BW A DAY IN DIET FOR 78 WK (STUDY DURATION: 79 WK)): inactive; negative
- carcinogen call (Species: MOUSE, Strain/Sex: B6C3F1/MALE, Route: ORAL, Dose: 0, 200, 600, 2000 MG/KG/BW A DAY IN DIET FOR 78 WK (STUDY DURATION: 79 WK), Dose: 0, 200, 600, 2000 MG/KG/BW A DAY IN DIET FOR 78 WK (STUDY DURATION: 79 WK)): inactive; negative
- carcinogen call (Species: RAT, Strain/Sex: F344/FEMALE, Route: ORAL, Dose: 0, 200, 600, 2000 MG/KG/BW/D IN DIET FOR 2 YR (STUDY DURATION: 105 WK), Dose: 0, 200, 600, 2000 MG/KG/BW/D IN DIET FOR 2 YR (STUDY DURATION: 105 WK)): inactive; negative
- carcinogen call (Species: RAT, Strain/Sex: F344/MALE, Route: ORAL, Dose: 0, 200, 600, 2000 MG/KG/BW/D IN DIET FOR 2 YR (STUDY DURATION: 105 WK), Dose: 0, 200, 600, 2000 MG/KG/BW/D IN DIET FOR 2 YR (STUDY DURATION: 105 WK)): inactive; negative

Compound: CCC(O)OC (stereo not given)
- carcinogen call (Species: MOUSE, Strain/Sex: B6C3F1/FEMALE, Route: INHALATION, Dose: 0, 300, 1000, 3000 PPM 6 HR/D 5 D/WK FOR 2 YR (STUDY DURATION: 2 YR), Dose: 0, 300, 1000, 3000 PPM 6 HR/D 5 D/WK FOR 2 YR (STUDY DURATION: 2 YR)): inactive; negative
- carcinogen call (Species: MOUSE, Strain/Sex: B6C3F1/MALE, Route: INHALATION, Dose: 0, 300, 1000, 3000 PPM 6 HR/D 5 D/WK FOR 2 YR (STUDY DURATION: 2 YR), Dose: 0, 300, 1000, 3000 PPM 6 HR/D 5 D/WK FOR 2 YR (STUDY DURATION: 2 YR)): inactive; negative
- carcinogen call (Species: RAT, Strain/Sex: F344/FEMALE, Route: INHALATION, Dose: 0, 300, 1000, 3000 PPM 6 HR/D 5 D/WK FOR 2 YR (STUDY DURATION: 2 YR), Dose: 0, 300, 1000, 3000 PPM 6 HR/D 5 D/WK FOR 2 YR (STUDY DURATION: 2 YR)): inactive; negative
- carcinogen call (Species: RAT, Strain/Sex: F344/MALE, Route: INHALATION, Dose: 0, 300, 1000, 3000 PPM 6 HR/D 5 D/WK FOR 2 YR (STUDY DURATION: 2 YR), Dose: 0, 300, 1000, 3000 PPM 6 HR/D 5 D/WK FOR 2 YR (STUDY DURATION: 2 YR)): inactive; negative

Compound: Fc1cccc2ncccc12
- carcinogen call (Species: MOUSE, Strain/Sex: CD-1/FEMALE, Route: INTRAPERITONEAL, Dose: 0, 1.75 UMOL/MOUSE (TOTAL DOSE) ADMINISTERED DURING DAYS 1, 8, AND 15 OF LIFE (STUDY DURATION: 52 WK)): inactive; negative
- carcinogen call (Species: MOUSE, Strain/Sex: CD-1/MALE, Route: INTRAPERITONEAL, Dose: 0, 1.75 UMOL/MOUSE (TOTAL DOSE) ADMINISTERED DURING DAYS 1, 8, AND 15 OF LIFE (STUDY DURATION: 52 WK), Tumor Site: Type of Lesion: LIVER: CARCINOMA): active; positive

Compound: Clc1ccccc1
- carcinogen call (Species: MOUSE, Strain/Sex: B6C3F1/FEMALE, Route: GAVAGE, Dose: 0, 60, 120 MG/KG IN CORN OIL 5 D/WK FOR 103 WK (STUDY DURATION: 105 WK), Dose: 0, 60, 120 MG/KG IN CORN OIL 5 D/WK FOR 103 WK (STUDY DURATION: 105 WK)): inactive; negative
- carcinogen call (Species: MOUSE, Strain/Sex: B6C3F1/MALE, Route: GAVAGE, Dose: 0, 30, 60 MG/KG IN CORN OIL 5 D/WK FOR 103 WK (STUDY DURATION: 105 WK), Dose: 0, 30, 60 MG/KG IN CORN OIL 5 D/WK FOR 103 WK (STUDY DURATION: 105 WK)): inactive; negative
- carcinogen call (Species: RAT, Strain/Sex: F344/FEMALE, Route: GAVAGE, Dose: 0, 60, 120 MG/KG IN CORN OIL 5 D/WK FOR 103 WK (STUDY DURATION: 105 WK), Dose: 0, 60, 120 MG/KG IN CORN OIL 5 D/WK FOR 103 WK (STUDY DURATION: 105 WK)): inactive; negative
- carcinogen call (Species: RAT, Strain/Sex: F344/MALE, Route: GAVAGE, Dose: 0, 60, 120 MG/KG IN CORN OIL 5 D/WK FOR 103 WK (STUDY DURATION: 105 WK), Dose: 0, 60, 120 MG/KG IN CORN OIL 5 D/WK FOR 103 WK (STUDY DURATION: 105 WK), Tumor Site: Type of Lesion: LIVER: NEOPLASTIC NODULE, NEOPLASTIC NODULE OR CARCINOMA): equivocal
